Where a chain is given by its changes, count along the chain named.
Assays:
Format in all cases: biochemical
[1] = target: T1, human arginase type I N130D (Homo sapiens, UniProt P05089, N130D); assay: Kinetic and inhibition studies, N130D mutant
T1 sequence (P05089 1-322 N130D): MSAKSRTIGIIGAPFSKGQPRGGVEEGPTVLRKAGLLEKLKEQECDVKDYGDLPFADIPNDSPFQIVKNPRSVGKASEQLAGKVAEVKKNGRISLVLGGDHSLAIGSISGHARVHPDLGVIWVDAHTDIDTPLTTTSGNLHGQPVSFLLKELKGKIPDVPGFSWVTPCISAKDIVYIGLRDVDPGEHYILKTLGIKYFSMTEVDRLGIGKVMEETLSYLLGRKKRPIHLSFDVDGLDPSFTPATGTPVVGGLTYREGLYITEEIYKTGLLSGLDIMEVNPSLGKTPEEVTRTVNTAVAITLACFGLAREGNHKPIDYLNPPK
Protocol: (§1) Bacterial cultures were grown with shaking at 37 °C in Luria Broth media, in the presence of ampicillin (100 μg/mL). The wild-type and mutant human liver arginase cDNAs were directionally cloned into the pBluescript II KS(+) expression vector and then expressed in E. coli JM109, following induction with 1 mM isopropyl β-D-thiogalactopyranoside. The bacterial cells were disrupted by sonication on ice (5 × 30 s pulses), centrifuged for 20 min at 12,000× g, and the obtained supernatant was precipitated with ammonium sulfate (60% saturation). The pellet, collected by centrifugation at 12,000× g for 10 min, was re-suspended in buffer 5 mM Tris–HCl (pH 7.5) containing 2 mM MnCl2 and dialyzed for 6 h at 4 °C against the same buffer. After incubation with 5 mM MnCl2 for 10 min at 60 °C, the enzyme variants were purified as previously described. The purity of the enzymes was evaluated by SDS–PAGE stained by Coomassie blue and immunodetection using an anti- rat arginase I antibody.
(§2) The single, double, triple, and chimera variants of human arginase type I were obtained by PCR, using the QuickChange site-directed mutagenesis kit (Stratagene, La Jolla, CA, USA); the plasmid pBluescript II KS(+) containing the human liver arginase cDNA was used as template. To obtain the chimeric species of human arginase type I, serial mutations were made in each loop to be modified, using as template DNA the wild-type arginase gene or the previous done mutation, subcloned in the plasmid pBluescript II KS (+). Specifically, the residues present in the arginase structure were replaced by those corresponding to the agmatinase sequence of E. coli.
(§3) All assays were initiated by adding the enzyme to a previously equilibrated buffer with the substrate in solution (the concentrations of used substrates were between 0.2–3 fold the Km). Urea was determined by a colorimetric method with α-isonitrosopropiophenone. The protein concentrations were determined by the Bradford’s method, with bovine serum albumin as standard. Initial velocity and enzymatic inhibition experiments were performed in duplicate and repeated three times. The inhibitory patterns were initially determined by double reciprocal plots and re-plots of intercepts and slopes versus inhibitor concentrations. […] Velocities are expressed as μmol of urea/10 min.

[2] = target: T2, human arginase type I N130D-N139D (Homo sapiens, UniProt P05089, N130D/N139D); assay: Kinetic and inhibition studies, N130D-N139D mutant
T2 sequence (P05089 1-322 N130D/N139D): T1 sequence (P05089 1-322 N130D) with N139D
Protocol: as §1, §2
All assays were initiated by adding the enzyme to a previously equilibrated buffer with the substrate in solution (the concentrations of used substrates were between 0.2–3 fold the Km). Urea was determined by a colorimetric method with α-isonitrosopropiophenone. The protein concentrations were determined by the Bradford’s method, with bovine serum albumin as standard. […]

[3] = target: T3, Chimera A1 (I129T/N130Y/T131A) of human arginase type I (Homo sapiens, UniProt P05089, I129T/N130Y/T131A); assay: Kinetic and inhibition studies, Chimera A1
T3 sequence (P05089 1-322 I129T/N130Y/T131A): T1 sequence (P05089 1-322 N130D) with I129T, D130Y, T131A
Protocol: as §1, §2, §3

[4] = target: T4, Chimera A2 (I129T/N130Y/T131A+∆ P132-T134) of human arginase type I (Homo sapiens, UniProt P05089, DEL129-131/I129T/L133Y/N130Y/P132T/T134A); assay: Kinetic and inhibition studies, Chimera A2
T4 construct: made in house; host or cells: E. coli JM109
T4 sequence (P05089 with tags, fused parts or gaps DEL129-131/P132T/L133Y/T134A): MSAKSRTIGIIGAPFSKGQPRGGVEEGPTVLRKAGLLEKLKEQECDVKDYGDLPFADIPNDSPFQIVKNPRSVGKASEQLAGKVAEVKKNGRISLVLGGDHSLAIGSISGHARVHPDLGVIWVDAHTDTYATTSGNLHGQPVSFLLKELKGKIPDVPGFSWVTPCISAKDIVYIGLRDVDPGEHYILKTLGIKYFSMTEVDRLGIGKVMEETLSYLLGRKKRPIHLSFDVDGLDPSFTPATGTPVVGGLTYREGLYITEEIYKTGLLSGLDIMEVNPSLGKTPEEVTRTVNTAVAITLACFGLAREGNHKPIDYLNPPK
Protocol: as §1, §2, §3

[5] = target: T5, type I human arginase D181T/V182E (Homo sapiens, UniProt P05089, D181T/V182E); assay: Kinetic and inhibition studies, D181T/V182E double mutant; settings: substrate arginine
T5 construct: made in house; host or cells: E. coli JM109
T5 sequence (P05089 1-322 D181T/V182E): T1 sequence (P05089 1-322 N130D) with D130N, D181T, V182E
Protocol: as §1, §2, §3

[6] = substrate = labelled compound, pH 9.5, 2 mM Mn2+

NCCC[C@H](N)C(=O)O [Ornithine, L-ornithine]
Ki ([1]; read-out: Ki^orn): 7.8 mM | Ki ([2]; read-out: Ki^orn): 6.4 mM | Inhibition type ([3]; substrate arginine): Competitive | Kis (Ki) ([3]; substrate arginine): 60 ± 2 mM | Inhibition by ornithine compared with wild-type arginase ([4]; pH 9.5, 37 °C, substrate 5 mM, Figure 4A): much more insensitive to inhibition by ornithine than the wild-type arginase | Inhibition type [5]: mixed-type inhibition | Kis (Ki) [5]: 71 ± 12 mM

N=C(N)NCCC[C@H](N)C(=O)O [Arginine, L-arginine]
Km [1, 6]: 13.3 mM | kcat [1, 6]: 33 s⁻¹ | catalytic activity relative to wild type ([1]; substrate arginine): 17% | kcat/Km ratio, times less than wild-type enzyme ([1]; substrate arginine): 50 times | kcat ([2]; substrate = labelled compound): 33 s⁻¹ | Km [2, 6]: 6.1 mM | kcat ([3]; substrate = labelled compound, n/a = no activity with the substrate): 6.2 ± 0.4 s⁻¹ | Km [3, 6]: 2.5 ± 0.5 mM | arginase activity, % of the enzymatic activity of wild-type arginase ([3]; substrate arginine): 3.5% | decrease of catalytic constant (kcat) compared with wild-type enzyme ([3]; substrate arginine): approximately 30 times | Inhibition type ([4]; substrate agmatine): linear competitive inhibition | Kis ([4]; substrate agmatine): 9 ± 3 mM | kcat [5]: 188 ± 10 s⁻¹ | Km ([5]; pH 9.5, 2 mM Mn2+): 32 ± 5 mM

Source: publication PMC9224512, “New Insights into the Determinants of Specificity in Human Type I Arginase: Generation of a Mutant That Is Only Active with Agmatine as Substrate” (International Journal of Molecular Sciences, 2022)
